In paper PMC5237709 (Acta Pharmaceutica Sinica. B, 2016):

Tests used:
[1] = target: M-Hsp90 (Saccharomyces cerevisiae, UniProt P02829); assay: Fluorescence quenching titration of middle domain of Hsp90; type: binding, Yeast; conditions: M-Hsp90 (272–617)
[2] = target: N-Hsp90 (Saccharomyces cerevisiae, UniProt P02829); assay: Fluorescence quenching titration of N-terminal domain of Hsp90; type: binding, Yeast; conditions: N-Hsp90 (1–236)
[3] = target: Hsp90 ATPase (Saccharomyces cerevisiae, UniProt P02829); assay: Hsp90 ATPase activity assay; type: biochemical, Yeast
[4] = target: T1, C-Hsp90 (Saccharomyces cerevisiae, UniProt P02829); assay: Fluorescence quenching titration of C-terminal domain of Hsp90; type: binding, Yeast; conditions: C-Hsp90 (629–732)
T1 sequence (P02829 608-709): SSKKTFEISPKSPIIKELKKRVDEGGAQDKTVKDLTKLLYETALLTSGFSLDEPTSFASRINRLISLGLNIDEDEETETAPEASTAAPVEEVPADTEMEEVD

Chain of M-Hsp90 (P02829 252-596): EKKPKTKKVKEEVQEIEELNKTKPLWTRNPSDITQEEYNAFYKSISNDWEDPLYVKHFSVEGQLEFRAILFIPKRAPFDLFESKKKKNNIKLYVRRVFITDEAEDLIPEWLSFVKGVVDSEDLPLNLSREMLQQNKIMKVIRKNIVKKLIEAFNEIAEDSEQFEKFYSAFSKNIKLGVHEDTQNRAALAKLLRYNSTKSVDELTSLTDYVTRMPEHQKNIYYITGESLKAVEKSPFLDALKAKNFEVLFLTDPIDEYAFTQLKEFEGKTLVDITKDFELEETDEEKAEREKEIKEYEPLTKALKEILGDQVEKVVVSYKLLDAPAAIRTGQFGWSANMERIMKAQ
Chain of N-Hsp90 (P02829 1-223): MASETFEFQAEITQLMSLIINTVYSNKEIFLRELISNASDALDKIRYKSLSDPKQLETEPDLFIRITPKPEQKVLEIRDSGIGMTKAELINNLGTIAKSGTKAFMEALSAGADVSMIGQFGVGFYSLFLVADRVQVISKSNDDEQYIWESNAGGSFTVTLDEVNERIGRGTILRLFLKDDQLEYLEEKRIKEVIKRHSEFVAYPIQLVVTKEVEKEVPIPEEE
Chain of Hsp90 ATPase (P02829 whole entry, the tested form may be a part): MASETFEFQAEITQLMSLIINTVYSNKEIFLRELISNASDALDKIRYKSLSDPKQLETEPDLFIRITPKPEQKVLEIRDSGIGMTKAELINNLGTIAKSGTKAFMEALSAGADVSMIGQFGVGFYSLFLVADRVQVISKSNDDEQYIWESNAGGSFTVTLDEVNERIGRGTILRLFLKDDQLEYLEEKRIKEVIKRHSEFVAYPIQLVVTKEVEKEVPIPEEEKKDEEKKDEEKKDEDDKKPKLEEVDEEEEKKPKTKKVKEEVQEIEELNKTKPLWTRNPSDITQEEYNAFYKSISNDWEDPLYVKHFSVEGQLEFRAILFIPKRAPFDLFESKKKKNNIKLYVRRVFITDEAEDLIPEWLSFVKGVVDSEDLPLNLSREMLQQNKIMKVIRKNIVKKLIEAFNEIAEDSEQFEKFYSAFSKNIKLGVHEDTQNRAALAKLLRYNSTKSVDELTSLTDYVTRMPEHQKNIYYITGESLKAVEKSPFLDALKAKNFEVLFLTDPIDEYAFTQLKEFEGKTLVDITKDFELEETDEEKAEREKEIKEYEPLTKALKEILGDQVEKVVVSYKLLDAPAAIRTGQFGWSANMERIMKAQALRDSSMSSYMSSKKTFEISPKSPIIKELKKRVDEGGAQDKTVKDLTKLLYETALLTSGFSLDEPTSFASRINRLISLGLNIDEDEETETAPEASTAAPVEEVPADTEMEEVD

COC1=C2C[C@@H](C)C[C@H](OC)[C@H](O)[C@@H](C)/C=C(\C)[C@H](OC(N)=O)[C@@H](OC)/C=C\C=C(/C)C(=O)NC(=CC1=O)C2=O [GA, Geldanamycin] was tested, and the Fmax [1] was 158.20±1.68, the Fmax [2] was 221.22±4.91 and the “Inhibition of the ATPase activity of Hsp90 (in words)” value [3] was “dose-dependent inhibition”. For the same molecule, the Fmax [4] was 67.91±0.63.
